Experiments:
[1] = target: T1, M2R (Homo sapiens, UniProt P08172); test: BRET-based TRUPATH GoA activation assay, antagonism of carbachol-induced G protein activation; type: cell-based
T1 sequence (P08172 1-466): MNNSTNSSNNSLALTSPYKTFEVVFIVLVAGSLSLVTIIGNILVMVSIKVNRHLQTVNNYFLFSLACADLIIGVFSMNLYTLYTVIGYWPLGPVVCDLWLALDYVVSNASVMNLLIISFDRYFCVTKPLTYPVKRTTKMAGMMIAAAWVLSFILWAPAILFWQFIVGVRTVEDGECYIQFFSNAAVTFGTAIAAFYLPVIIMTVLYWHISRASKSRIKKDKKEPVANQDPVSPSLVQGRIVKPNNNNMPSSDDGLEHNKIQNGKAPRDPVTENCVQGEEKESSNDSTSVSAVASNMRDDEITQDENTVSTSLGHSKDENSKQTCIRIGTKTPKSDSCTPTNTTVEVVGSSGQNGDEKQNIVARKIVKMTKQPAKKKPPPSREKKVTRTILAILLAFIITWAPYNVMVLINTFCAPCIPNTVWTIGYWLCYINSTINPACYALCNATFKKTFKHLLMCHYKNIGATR

[2] = target: T2, hM1R (Homo sapiens, UniProt P11229); test: Radioligand competition binding, [3H]-scopolamine (N-methyl), CHO cell membranes, hM1R; conditions: 10 μM compound; radioligand binding; read-out: inhibition at 10 μM (M1)
T2 construct: expressed in transfected cells; host or cells: CHO cell membranes
T2 sequence (P11229 1-460): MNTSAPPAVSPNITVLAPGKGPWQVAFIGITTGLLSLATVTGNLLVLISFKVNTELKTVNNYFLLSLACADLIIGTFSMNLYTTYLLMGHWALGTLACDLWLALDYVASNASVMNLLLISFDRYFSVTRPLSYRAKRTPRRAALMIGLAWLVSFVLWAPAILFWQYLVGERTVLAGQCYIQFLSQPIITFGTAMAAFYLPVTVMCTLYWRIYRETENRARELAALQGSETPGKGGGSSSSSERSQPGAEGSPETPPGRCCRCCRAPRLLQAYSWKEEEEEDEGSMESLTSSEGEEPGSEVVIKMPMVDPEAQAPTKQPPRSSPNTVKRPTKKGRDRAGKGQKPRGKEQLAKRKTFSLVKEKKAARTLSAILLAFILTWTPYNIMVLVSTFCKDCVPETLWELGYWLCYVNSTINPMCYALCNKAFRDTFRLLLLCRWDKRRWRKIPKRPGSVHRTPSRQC

[3] = Photophysical measurements and photostability; type: physicochemical
Method: Next, we investigated the photophysical properties of the fluorescent probe 33. In acetonitrile, the probe has an absorption maximum at 520 nm and a fluorescence maximum at 547 nm with a Stokes shift of 27 nm. […] The dye was pH sensitive, with intensity increasing at higher pH. Following a literature procedure, we examined the effect of protein (BSA) on the ligand. […]
Photophysical Measurements
Absorbance measurements were performed using a Jasco V-750 Spectrophotometer standard cell quartz cuvette with 1 cm light path length, 1 nm bandwidth, 400 nm/min recording speed) operating at 21 °C. The fluorescence measurements were carried out on a Jasco FP8300 spectrofluorometer in a standard cell quartz cuvette (1 cm light path length). Both the excitation and emission slit widths were both set to 2.5 nm, and the scanning speed was 400 nm/min. Pure solvents were used for blank correction. Absorbance spectra and excitation spectra were recorded in the range of […]. For the emission spectra, we excited the sample at the excitation maximum, and measured it from excitation maximum plus 10 nm to 800 nm.
Quantum yields were calculated by recording the fluorescence spectra of a series of different concentrations. The gradient of the integrated fluorescence intensities plotted against absorbance at the excitation wavelength was used for the calculation of the quantum yields:
The compound 33 was excited at 360 nm, OG488-NHS was used as reference (Φwater = […]
Solvent screening measurements were conducted using 5 μM solutions of the fluorescent probe 33 in various solvents, including acetonitrile, 1,4 -dioxane, water, toluene, dichloromethane, tetrahydrofuran, ethanol, PBS buffer (pH=5; 7; 7.4, 9), PBS buffer (pH=7.4) with 1% BSA, and ethyl acetate. Photostability measurements were performed with 5 μM solution of in PBS buffer (pH=7). The samples were exposed to a 4 W light-emitting diode emitting at 450 nm, and emission spectra were recorded.

[4] = target: T3, hM5R (Homo sapiens, UniProt P08912); test: Radioligand competition binding, [3H]-scopolamine (N-methyl), CHO cell membranes, hM5R; conditions: mean ± SD, n = 3; membranes from CHO cells transfected with hM5R; read-out: Receptor Ki M5
T3 construct: expressed in transfected cells; host or cells: CHO cell membranes
T3 sequence (P08912 1-532): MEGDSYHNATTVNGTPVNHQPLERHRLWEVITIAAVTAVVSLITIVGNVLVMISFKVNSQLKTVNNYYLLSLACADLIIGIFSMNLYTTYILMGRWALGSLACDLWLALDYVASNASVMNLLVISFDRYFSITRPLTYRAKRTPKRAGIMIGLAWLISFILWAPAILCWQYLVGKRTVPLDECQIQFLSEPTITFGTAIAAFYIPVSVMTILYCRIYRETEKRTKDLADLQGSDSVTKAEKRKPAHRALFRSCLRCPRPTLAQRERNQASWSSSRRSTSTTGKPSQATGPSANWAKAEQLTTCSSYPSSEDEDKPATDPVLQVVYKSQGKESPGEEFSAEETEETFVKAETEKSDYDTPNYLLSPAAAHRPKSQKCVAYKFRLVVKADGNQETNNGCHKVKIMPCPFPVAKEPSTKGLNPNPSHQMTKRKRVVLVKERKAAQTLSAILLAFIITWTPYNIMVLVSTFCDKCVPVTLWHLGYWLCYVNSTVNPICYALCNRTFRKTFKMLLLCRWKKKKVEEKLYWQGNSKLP

[5] = target: T4, hM2R (Homo sapiens, UniProt P08172); test: Radioligand competition binding, [3H]-scopolamine (N-methyl), CHO cell membranes, hM2R; conditions: mean ± SD, n = 3; membranes from CHO cells transfected with hM2R; read-out: Receptor Ki M2
T4 construct: expressed in transfected cells; host or cells: CHO cell membranes
T4 sequence (P08172 1-466): T1 sequence (P08172 1-466)

For `O=C(CCOCCOCCNC(=O)c1ccc(-c2c3cc(F)c(=O)cc-3oc3cc(O)c(F)cc23)c(C(=O)O)c1)NCCOCCOCCNc1ccccc1C(=O)N1CCC(N2CCC(Cc3ccc(S(=O)(=O)c4cccc(Cl)c4)cc3)CC2)CC1` [Compound 33], the “mode of antagonism of carbachol-induced G protein activation” value ([1]; TRUPATH GoA assay) was “competitive antagonists”, the “Log(IC50) ± SD (M), carbachol-induced GoA protein activation” value ([1]; log10 of IC50 (negative values), HEK 293T, compound 20 min, then 10 μM carbachol 15 min, Hill-slope = 1, n = 3) was “–7.39 ± 0.09 M” and the inhibition at 10 µM [2] was 38%. For the same compound, the “photostability: irradiation time to half of the original fluorescence intensity” value ([3]; PBS (pH 7), 5 μM, 4 W, 450 nm light) was 10 min, the Stokes shift ([3]; in acetonitrile) was 27 nm and the absorption maximum ([3]; in acetonitrile) was 520 nm. The brightness ([3]; in acetonitrile) was 8501, the fluorescence maximum ([3]; in acetonitrile) was 547 nm and the “molar extinction coefficient (ε)” value ([3]; in acetonitrile) was 42504.9 M^–1 cm^–1. The “fluorescence quantum yield (Φf)” value ([3]; in acetonitrile, OG488-NHS as reference) was 0.20, the Ki [4] was 182 ± 23 nM and the Ki [5] was 2.4 ± 0.4 nM.
